Where a name gives a salt, the structure may show the parent alone.
Columns and labels:
[1] = Emulsion stability (visual separation test; storage, sunlight, temperature); format: physicochemical; details: after mixing with heat and agitation; initial observation
From the text: In some embodiments of the present invention, a stable emulsion containing oil-soluble compounds and/or resins in a liquid base is provided. The stable emulsion may be stored in a container suitable for delivery to a consumer. The stable emulsion may be provided in a vial, cartridge or other container. Preferably the container is air-tight. The stability of the emulsion may be measured or quantified by no visible separation after 30 days.
In this example, a series of liquid compositions were prepared and evaluated for their emulsion stability. Varying compositions were tested that utilized different lipid solubilizers (8 in total). The liquid base in these compositions was propylene glycol. Test samples (liquid compositions including cannabis extract) were subjected to a range of conditions: temperature, sunlight, extended storage, and varied ingredient concentration. Various types of cannabis extract were also tested. For each test sample, observations were noted about the color, viscosity, general visual appearance of each sample, and any changes seen over time.
Materials and Methods: Testing was performed in 20 ml glass scintillation vials. Mixing of the liquid base and lipid solubilizer was done entirely in borosilicate glassware, and ingredients were measured by mass using an AND EJ-610 balance. Samples were heated using a Scilogex MS7-H55O digitally controlled hot plate. Cannabis extract was produced using an Apeks closed-system solvent extractor running instrument grade propane. […]
Formula preparation: Formulas using lipid solubilizers were prepared in three concentrations: 0.1%, 0.5% and 1.0% by mass, in a solvent base of propylene glycol. […] Stock solutions were made of each of the eight lipid solubilizers at each of the three concentrations, producing a total of 24 different formulas at a quantity of approximately 500 ml each. […] After cooling the formula was ready for use. […]
Test Sample preparation: For each sample, the appropriate quantity of cannabis extract and liquid formula were added to a vial. […]

[2] = Viscosity rating of liquid compositions (cannabis extract emulsions in propylene glycol formulas); format: physicochemical; details: cannabis extract emulsion in propylene glycol
Experimental: The liquid composition comprising the oil-soluble compounds or resin should have a density and viscosity suitable for use in a personal vaporizer. […] For example, a liquid composition having a […] of about 100 cps, alternatively about 75 cps or less, alternatively about 50 cps or less, alternatively about 42 cps (the viscosity of propylene glycol) or more. The foregoing values can be combined to form a range. Viscosity values are determined at 25° C. using standard equipment for measuring viscosity of liquids.
Test Sample preparation: For each sample, the appropriate quantity of cannabis extract and liquid formula were added to a vial. The vial was placed on a hot plate at 85° C. until the extract melted. The vial was gently shaken to disperse the extract. Each of the formula recipes were tested with five concentrations of extract: 5%, 10%, 20%, 33%, and 50%, by mass. For example: to produce a 10% extract sample we placed 9.00 grams of one of the stock oil emulsifier formulas, and 1.00 grams of one of cannabis extracts in a 20 ml scintillation vial and applied heat. The components remained separate until heat and agitation are applied.
The viscosity of each sample is rated, in which “1” indicates lower viscosity, “2” indicates moderate viscosity, and “3” indicates higher viscosity.

Molecule | formation of a stable emulsion [1] | viscosity (in words) [2]
CCOC(=O)CC(O)(CC(=O)OCC)C(=O)OCC [triethyl citrate, Triethyl Citrate] | appeared to perform adequately | 
CCCCCCCC(=O)OCC(O)CO (centres unmarked) [MCM C8, Glyceryl Caprylate] |  | least viscosity
CCCCCCCCCCCC(=O)OCC(O)CO (centres unmarked) [Monolaurin, Glyceryl Monolaurate] | effective and flavorless emulsifier | 
Propylene Glycol Monolaurate [PG-12] |  | most viscous
CC(=O)OCC(COC(C)=O)OC(C)=O [triacetin, Triacetin] | appeared to perform adequately | 
